Laboratory results published in US7169756B2, “Streptogramin antibiotics” (priority 2005, dated 2007).
Bridge positions count the residues as written; N and C are the ends. Square brackets hold non-standard residues; d marks the D form. Peptide text beside a SMILES is read from it. * marks the point of attachment. Picolinoyl(3-OH) = O=C(c1ncccc1O)*; Phg = N[CH](C(=O)O)c1ccccc1; Abu = CC[CH](N)C(=O)O; Dap = NC[CH](N)C(=O)O

Assays:
Human red blood cells = experiment: Hemolysis Assay; type: cell-based; conditions: 3 and 9 hr at 37° C., A412 of supernatant, gramicidin 30 μg/ml
Procedure: Human red blood cells were freshly harvested, washed with 0.85% saline solution with 5 mM EDTA and resuspended in the same solution to an A412 of 0.6. The hemolysis assay was performed in 1.5 ml Eppendorf tubes with the addition of either 5 in DMSO, saline, gramicidin (final concentration 30 μg/ml), or DMSO (5% final), for both 3 and 9 hr at 37° C. with occasion gentle mixing. The mixtures were then centrifuged and the A412 of the supernatant measured.

in vitro translation = experiment: In Vitro Translation Assay; type: biochemical; conditions: FIG. 6; 15 min preincubation, 1 hr at 37° C., 5% DMSO; concentration not given
Procedure: Inhibition of translation was monitored using an ActivePro In Vitro Translation Kit from Ambion. Briefly, a reaction mixture was prepared as per the manufacturer's instructions that contained all of the constituents necessary (including [^35S]-methionine) except for DNA template. These mixtures were then preincubated for 15 min at room temperature in the presence or absence of various antibiotics. Subsequent to the preincubation period, a control template containing a chloramphenicol acetyltransferase gene under control of a bacteriophage T7 promoter was added and the reaction carried out for 1 hr at 37° C. Due to the insoluble nature of some of the antibiotics, the final DMSO concentration in each reaction including controls was maintained at 5% (v/v). Aliquots were taken after 1 hr, and separated on SDS polyacrylamide gels. The efficiency of translation of ^35S-labeled […] was analyzed and quantified using a Typhoon 9200 variable mode imager (Image-Quant 5.2 software).

E. coli BAS901/pUC19 = experiment: disk assay, zone of growth inhibition; type: cell-based, Escherichia coli
Source text: (§1) A hyperpermeable E. coli strain, E. coli BAS901, harboring a plasmid constitutively expressing Vgb was created for in vivo studies. The plasmids pVGB, described previously in [14], and […] were digested with Xbal and BamHI, to yield an approximately 1 kb fragment containing a ribosomal binding site upstream of vgb, and linearized pUC19 backbone, respectively. The vgb fragment was then subcloned into the linearized pUC19 backbone downstream of pLac yielding pUC19-VGB. Both pUC19-VGB and pUC19 were transformed E. coli BAS901.
(§2) The antibiotic activity of the peptides synthesized in this study was initially assayed using a disk assay where samples were applied to sterile paper disks placed on a fresh lawn of bacterial culture on appropriate agar plates as required by the organism. These were then incubated for 16 hr at 37° C. and the zone of growth inhibition surrounding the disks recorded. For quantitative assessment of antibiotic activity in liquid culture, the minimal inhibitory concentration (MIC) of peptides was determined by serial dilution studies. The peptides and standard antibiotics were dissolved in DMSO and the final concentration of DMSO in the liquid cultures was 5%. Both S. aureus RN4220 and E. coli BAS901 were able to grow efficiently at this level of DMSO.
(§3) Crude material from the initial synthesis reactions was used to test the potential of the analogues as antibiotics in susceptibility assays where a solution of the compound was placed on a paper disk on a lawn of bacteria. As described above, E. coli BAS901 is deficient in the Imp/OstA protein, an outer membrane protein, involved in cell envelope biogenesis (1, 5). […] The antibiotic activity of the peptides synthesized in this study was initially assayed using a disk assay where samples were applied to sterile paper disks placed on a fresh lawn of bacterial culture on Tryptic Soya, Luria Broth, or Brain Heart Infusion Agar plates. These were then incubated for 16 hrs at 37° C. and the zone of growth inhibition surrounding the disks recorded.

E. coli BAS901/pUCVgb = experiment: disk assay, zone of growth inhibition; type: cell-based, Escherichia coli; conditions: Vgb constitutively expressed
Source text: as §1, §2, §3

Row | Compound | inhibition of in vitro translation (in vitro translation) | further results
1 | gramicidin S |  | hemolytic activity (Human red blood cells): lysed cells rapidly
2 | O=C(N[C@H](CO)[C@H](O)c1ccc([N+](=O)[O-])cc1)C(Cl)Cl [chloramphenicol] | did block | 
3 | CC[C@H]1OC(=O)[C@H](C)[C@@H](O[C@H]2C[C@@](C)(OC)[C@@H](O)[C@H](C)O2)[C@H](C)[C@@H](O[C@@H]2O[C@H](C)C[C@H](N(C)C)[C@H]2O)[C@](C)(O)C[C@@H](C)C(=O)[C@H](C)[C@@H](O)[C@]1(C)O [erythromycin] | did block | 
4 | CCN(CC)CCS(=O)(=O)[C@@H]1CCN2C(=O)c3coc(n3)CC(=O)C[C@H](O)/C=C(C)/C=C/CNC(=O)/C=C/[C@@H](C)[C@@H](C(C)C)OC(=O)[C@@H]12 [dalfopristin] | did block | 
5 | CCC1NC(=O)C(NC(=O)c2ncccc2O)CNC(=O)C(c2ccccc2)NC(=O)C2CCCN2C(=O)C(Cc2ccccc2)NC(=O)C2CCCN2C1=O (stereo not drawn) [Compound 8] ({Picolinoyl(3-OH)}-[Dap][Abu]PFP[Phg]; lactam 1-C; configuration not given here) |  | Zone of Inhibition (E. coli BAS901/pUC19): no antibacterial activity and n.i.; Zone of Inhibition (E. coli BAS901/pUCVgb): n.i.
